Data on one sequence can be found in patent US20220267390A1, “MPS MODIFIED PEPTIDES AND USE THEREOF” (The Regents of the University of California, priority 2019, published 2022).

What all share (format): cell-based, human
One assay concerns IPF fibroblast cells. Kind of assay: cells. The following applies: 72 h. The method, then: FIG. 14: Comparison of MPS-12042 (SEQ ID NO: 45) versus know tyrosine kinase inhibitor (TKLs) on the treatment of IPF fibroblast cells. Both normal and IPF lung fibroblast cells were treated with various drugs. After 72 hours, cells were subjected to MTT assays and IC50 for each drug was determined.
Human primary fibroblast cells were obtained from airway tissues provided from the UC Davis Medical Hospital (Sacramento, Calif.) with consent. The protocol for human tissue procurement and usage were periodically reviewed and approved by the University Human Subject Research Review Committee. Primary fibroblast cell lines, IPF-1 and IPF-2 cells, were established from IPF patients. Cells were obtained from lung biopsies and the diagnosis of IPF was supported by patient history, physical examination, pulmonary function tests, and typical high-resolution chest computed tomography findings of IPF. […] All patients fulfilled the criteria for the diagnosis of IPF as established by the American Thoracic Society and European Respiratory Society. Non-fibrotic primary control adult human lung fibroblast lines, Normal-1 and Normal-2 cells were used. These lines were established from normal lung tissue or histologically normal lung tissue adjacent to carcinoid tumor. The IPF cell line, LL97A, was purchased from the American Type Culture Collection (ATCC) (Manassas, Va.). Lung fibroblast lines were cultured in high-glucose DMEM or RPMI-1640 medium with 10% fetal bovine serum and 1% penicillin-streptomycin at 37° C. in a humidified atmosphere of 5% CO2. Fibroblasts were used between passages 4 and 8. Cells were characterized as fibroblasts as described^26.
Cells were seeded onto 96-well plates at a density of 5-10×10^3 cells per well and cultured for the indicated treatment. Cell proliferation was evaluated using a MTS assay kit (Promega, Madison, Wis.). Twenty microliters of the combined MTS/PMS solution was added into each well, incubated for 3 hours at 37° C., and the absorbance was measured at 490 nm by using an ELISA reader. For Trypan blue test, cells were plated on 12-well plates and treated with the indicated chemotherapeutic agents. After 72 hours, both attached and detached cells were collected and then stained with 0.2% trypan blue (0.1% final concentration), and the number of trypan blue-positive and -negative cells was counted using a haemocytometer under low-power microscopy. For colony-forming assays, 200 cells were seeded in each well of six-well plates. IPF-1 or IPF-2 primary cells were treated with peptides at the indicated concentrations for 10 days. Colonies were stained using 0.001% crystal violet and the number of colonies with a diameter greater than 0.5 mm was counted under an inverted microscope.

Assay [1] deals with PIP3. Kind of assay: PI(3,4,5)P3 quantitation (PIP3 Mass ELISA) in IPF fibroblasts. The following applies: MPS-treated IPF fibroblasts vs PBS. From the text: FIGS. 10A-10C: (FIG. 10A) The PIP2-binding motif (SEQ ID NO: 12) on the ? hosphorylation ? ite ? omain (PSD) of MARCKS. FIG. 10A discloses the MH domain as SEQ ID NO: 86). (FIG. 10B) Biolayer interferometry analysis of the binding of the MPS peptide to biotin-labeled PIP2. (FIG. 10C) PIP3 levels in IPF fibroblast cells with PBS or MPS treatment. * p<0.05 versus PBS (n=3).
Cells were harvested and precipitated by trichloroacetic acid. PIP3 lipids were extracted twice from the trichloroacetic acid precipitated fraction by methanol: chloroform (2:1). After acidification, organic-phase lipids were used for PIP3 quantitation, based on the protocol for the PIP3 Mass ELISA kit (Echelon Biosciences, Salt Lake, Utah). Briefly, the lipid extract from cultured cells was mixed with the PIP3-specific detector protein, which was then incubated in a PIP3-coated microplate for competitive binding. After several washes, the microplate was then incubated with a HRP-linked secondary detector and tetramethylbenzidine substrate for color development. To stop further color development, 2M H2SO4 solution was then added. Microplates were read at an absorbance wavelength of 450 nm. A series of different dilutions of PIP3 standards were used for establishing a standard curve for each reaction. Cellular PIP3 amounts could be estimated by comparing the absorbance in the wells with the values in the standard curve. […]
On the technique in general: In an ELISA, binding on a coated surface is turned into a signal by an enzyme label.

For assay [2], the system named is PIP3. Kind of assay: Immunocytochemistry with anti-PIP3 antibodies in IPF lung fibroblast cells. The following applies: 100 μM, 12 hours. As to the method: Multiple IPF lung fibroblast cells were treated with either PBS or 100 μM of MPS peptide for 12 hours and then subjected to immunocytochemistry using anti-PIP3 antibodies. Representative images are shown (n=3). Scale bar: 20 μm.
MARCKS levels and activity (phospho-MARCKS) were correlated with higher pro-fibrotic activity including cell proliferation, extracellular matrix production, invasiveness, and fibroblast differentiation. Upon treatment with MPS peptides, which target MARCKS activity, Applicant observes attentuation of these activities. The second significant finding was that MARCKS mediates these profibrotic effects through through the PI3K/AKT pathway. […] Targeting of these activities with MPS peptide results in decreased AKT activity and downstream pro-fibrotic signals. The mechanism through which this occurs is through regulation of PIP2 availability at the cell membrane. In an unphosprylated state, MARCKS is able to bind PIP2 at the cell membrane, preventing PI3K proteins from converting PIP2 into PIP3 and effecting downstream AKT activity. Upon phosphorylation, MARCKS is released from the cell membrane into the cytosol, freeing up PIP2 and allowing PI3K to convert PIP2 into PIP3. […] Applicant obtained multiple IPF lung fibroblast cells and treated them with either PBS or 100 μM MPS peptide for 12 hours and subjected to immunocytochemistry utilizing anti-PIP3 antibody.

Where no end group is shown, it is not given here.

As to KKKKKRFSFKKSFKLSGFSFKKNKK [MPS peptide], in the assay on IPF fibroblast cells, the IC50 (as a rule, the point on the concentration scale where inhibition reaches its midpoint) is 125 to 178 µM. Also, the “PIP3 pools in whole cell lysates” value with PIP3 [1] is recorded as “decrease”. Besides, the PIP3 levels entry in the assay with PIP3 [2] is “reduced”.
